Drawing on patent publication US8389743B2, “Histamine-3 receptor antagonists” (Pfizer Inc., priority 2005, dated 2013), this text covers Ki for 9 compounds.

Each structure is given as a SMILES string. Counter-ions that a name gives are not always drawn.

For this experiment, the target named is T1, rat histamine H3 receptors (Rattus norvegicus, UniProt Q9QYN8).
T1 construct: Frozen rat frontal brain or frozen human post-mortem frontal brain is homogenized; from tissue; host or cells: rat frontal brain membranes
T1 sequence (Q9QYN8 whole entry): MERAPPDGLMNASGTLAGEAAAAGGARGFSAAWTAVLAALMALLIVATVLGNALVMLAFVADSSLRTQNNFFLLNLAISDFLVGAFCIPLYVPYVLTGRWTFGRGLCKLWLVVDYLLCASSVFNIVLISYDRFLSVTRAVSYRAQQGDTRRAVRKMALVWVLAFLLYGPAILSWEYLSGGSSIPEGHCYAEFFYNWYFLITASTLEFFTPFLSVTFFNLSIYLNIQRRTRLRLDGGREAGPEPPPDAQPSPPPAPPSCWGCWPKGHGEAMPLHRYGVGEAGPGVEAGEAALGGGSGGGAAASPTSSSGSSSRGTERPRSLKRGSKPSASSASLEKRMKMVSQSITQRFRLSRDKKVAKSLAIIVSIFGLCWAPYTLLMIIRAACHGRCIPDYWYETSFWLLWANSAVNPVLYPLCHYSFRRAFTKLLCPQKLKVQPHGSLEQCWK
Put plainly: Rat Histamine H3 Receptor Binding. Conditions: rat frontal brain membranes; radioligand 3H-N-methyl-histamine 1 nM; 1 hour incubation; read-out: rH3 Ki. The protocol:
The in vitro affinity of the compounds in the present invention at the rat or human histamine H3 receptors can be determined according to the following procedure. Frozen rat frontal brain or frozen human post-mortem frontal brain is homogenized in 20 volumes of cold 50 mM Tris HCl containing 2 mM MgCl2 (pH to 7.4 at 4° C.). The homogenate is then centrifuged at 45,000 G for 10 minutes. The supernatant is decanted and the membrane pellet resuspended by Polytron in cold 50 mM Tris HCl containing 2 mM MgCl2 (pH to 7.4 at 4° C.) and centrifuged again. The final pellet is resuspended in 50 mM Tris HCl containing 2 mM MgCl2 (pH to 7.4 at 25° C.) at a concentration of 12 mg/mL. Dilutions of compounds are made in 10% DMSO/50 mM Tris buffer (pH 7.4) (at 10× final concentration, so that the final DMSO concentration is 1%). Incubations are initiated by the addition of membranes (200 microliters) to 96 well V-bottom polypropylene plates containing 25 microliters of drug dilutions and 25 microliters of radioligand (1 nM final concentration 3H—N-methyl-histamine). After a 1 hour incubation, assay samples are rapidly filtered through Whatman GF/B filters and rinsed with ice-cold 50 mM Tris buffer (pH 7.4) using a Skatron cell harvester. Radioactivity is quantified using a BetaPlate scintillation counter. The percent inhibition of specific binding can then be calculated.
As for `O=C(C1CC(F)(c2ccc(CN3CCCC3)c(F)c2)C1)N1CCCC1` (stereo not drawn) [Example 9, N-{2-fluoro-4-[1-fluoro-3-(pyrrolidin-1-ylcarbonyl)cyclobutyl]benzyl}-pyrrolidine hydrochloride], the inhibitory constant (Ki) was 18.9 nM.
In the case of `CC(C)CNC(=O)C1CC(F)(c2ccc(CN3CCCC3)c(F)c2)C1` (single isomer, unassigned) [Example 55, 3-Fluoro-3-(3-fluoro-4-pyrrolidin-1-ylmethyl-phenyl)-cyclobutanecarboxylic acid isobutyl-amide], the Ki stood at 10.1 nM.
Take `O=C(NCC1CC1)C1CC(F)(c2ccc(CN3CCCC3)c(Cl)c2)C1` (stereo not drawn) [Example 46, 3-(3-Chloro-4-pyrrolidin-1-ylmethyl-phenyl)-3-fluoro-cyclobutanecarboxylic acid cyclopropylmethyl-amide]: the Ki was 10.9 nM.
In the case of `CCNC(=O)C1CC(c2ccc(CN3CCCC3)c(F)c2)C1` (stereo not drawn) [Example 13, 3-(3-Fluoro-4-pyrrolidin-1-ylmethyl-phenyl)-cyclobutanecarboxylic acid ethylamide], the Ki came out at 10.1 nM.
Turning to `CCN(C)C(=O)C1CC(F)(c2ccc(CN3CCCC3)c(F)c2)C1` (stereo not drawn) [Example 23, 3-Fluoro-3-(3-fluoro-4-pyrrolidin-1-ylmethyl-phenyl)-cyclobutanecarboxylic acid ethyl-methyl-amide], the Ki turned out to be 28.8 nM.
As for `CCNC(=O)C1CC(F)(c2ccc(CN3CCCC3)c(F)c2)C1` (stereo not drawn) [Example 16, 3-Fluoro-3-(3-fluoro-4-pyrrolidin-1-ylmethyl-phenyl)-cyclobutanecarboxylic acid ethylamide], the figure is 20.7 nM; as for `CC(C)CNC(=O)C1CC(F)(c2cc(Cl)c(CN3CCCC3)cc2F)C1` (mixture of isomers) [Example 11, 3-(5-Chloro-2-fluoro-4-pyrrolidin-1-ylmethyl-phenyl)-3-fluoro-cyclobutanecarboxylic acid isobutyl-amide], 24.1 nM; as for `CN(CC1CC1)C(=O)C1CC(F)(c2ccc(CN3CCCC3)c(Cl)c2)C1` (mixture of isomers) [Example 50, 3-(3-Chloro-4-pyrrolidin-1-ylmethyl-phenyl)-3-fluoro-cyclobutanecarboxylic acid cyclopropylmethyl-methyl-amide], 32.3 nM.
Regarding `CCNC(=O)C1CC(F)(c2ccc(CN3CCC[C@@H]3C)c(F)c2)C1` (stereo partly drawn) [Example 59, 3-Fluoro-3-[3-fluoro-4-((S)-2-methyl-pyrrolidin-1-ylmethyl)-phenyl]-cyclobutanecarboxylic acid ethylamide], the Ki was 21.4 nM.
